The subject of one test is eNOS. Kind of test: eNOS phosphorylation (anti-phospho eNOS^Ser1177 western blot). As to conditions: HEK.TPα cells (also HEK 293, HEK.TPβ); 1 μM U46619 or 10 U/ml Thrombin, 5 min, 37 °C. The class given is cell-based, human. The protocol:
In order to assess eNOS phosphorylation, HEK.TPα, HEK.TPβ or HEK 293 cells (2 × 10^6 cells/10-cm dish) were plated some 48 h prior to experimentation. Cells were incubated with vehicle, 1 μM U46619 or 10 U/ml Thrombin for 5 min at 37 °C and aliquots of whole cell protein (100 μg/lane) were analysed by SDS-PAGE/western blot. Blots were initially screened using the anti-phospho eNOS^1177 as per supplier's instructions (Cell Signalling Technology) and, following stripping, were subsequently re-screened using the anti-eNOS (Transduction Laboratories).

The target in the next test is T1, TP^Δ328 (Homo sapiens, UniProt P21731).
T1 construct: expressed in transfected cells
T1 sequence (P21731 1-328): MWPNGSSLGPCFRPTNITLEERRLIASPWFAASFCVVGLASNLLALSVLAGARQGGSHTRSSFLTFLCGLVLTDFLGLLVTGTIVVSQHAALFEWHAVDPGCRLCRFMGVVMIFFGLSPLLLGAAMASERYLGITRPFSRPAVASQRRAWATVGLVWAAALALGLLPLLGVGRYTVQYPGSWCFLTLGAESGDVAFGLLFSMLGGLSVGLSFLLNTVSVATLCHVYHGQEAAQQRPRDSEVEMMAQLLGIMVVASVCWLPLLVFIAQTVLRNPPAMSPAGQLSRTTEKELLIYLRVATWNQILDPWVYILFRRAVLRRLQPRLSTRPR
Put plainly: IP3 generation, HEK.TP^Δ328 cells. The note with it: 1 μM U46619 2 min, washout, restimulation at 60 min. The class given is cell-based. The protocol:
Intracellular IP3 levels were measured as previously described [[33,43]]. Briefly, cells were harvested by scraping, washed twice in ice-cold PBS and resuspended at approximately 2 × 10^6 cells/200 μl in HEPES-buffered saline (HBS; […], 4.7 mM KCl, 2.2 mM CaCl2, 1.2 mM KH2PO4, 11 mM glucose, 15 mM HEPES–NaOH, pH 7.4), 10 mM LiCl (Walsh et al., 2000). […] Thereafter, cells were stimulated with 1 μM U46619 at 37 °C for 2 min. To assess agonist-mediated homologous desensitization, cells (2 × 10^6 cells/200 μl) were stimulated with 1 μM U46619 at 37 °C for 2 min (Primary stimulation); thereafter, cells were collected by centrifugation (900×g, 5 min); were washed once in 200 μl HBS, 10 mM LiCl and finally resuspended in 200 μl HBS, 10 mM LiCl and were left to recover for 60 min; thereafter, cells were re-stimulated with 1 μM U46619 at 37 °C for 2 min (secondary stimulation). All ligands and […] were pre-diluted in HBS such that 50 μl added to 200 μl of cell suspension in HBS gave the desired final concentration. To determine basal IP3 levels, an equivalent volume (50 μl) of the vehicle HBS was added instead of ligand. The level of IP3 produced was quantified by radio competition assay essentially as described. […]

Structures are written as SMILES.

Take `CCCCC[C@H](O)/C=C/[C@@H]1[C@@H](C/C=C\CCCC(=O)O)[C@H]2CO[C@@H]1C2` [U46619]: the “eNOS phosphorylation at Ser^1177” value in the test on eNOS is given as “rapid phosphorylation-dependent activation of eNOS”. Besides, the “IP3 generation following secondary restimulation after U46619 pre-incubation” value at TP^Δ328 was “no significant effect”.

The record behind these values is publication PMC2680961, “Homologous desensitization of signalling by the alpha (α) isoform of the human thromboxane A2 receptor: A specific role for nitric oxide signalling” (Biochimica et Biophysica Acta, 2007).
